The term IC50 denotes the point on the concentration scale where inhibition reaches its midpoint. What is called EC50 is the concentration at which the effect is half-maximal. Usually Km stands for the concentration of substrate that gives half-maximal velocity.

The source of these data is PMC8007633, “The effect of Aspalathus linearis (Burm.f.) R.Dahlgren and its compounds on tyrosinase and melanogenesis” (Scientific Reports, 2021).

Assay [1] addresses T1, mushroom tyrosinase (Agaricus bisporus, UniProt C7FF04).
T1 construct: purchased Sigma-Aldrich Co. LLC, St. Louis, MO, USA
Nature of the assay: Tyrosinase enzyme kinetics: change in L-dopa kinetics, type of inhibition. Type of assay: biochemical. Particulars: for Change in L-dopa kinetics, Vmax: maximum enzyme velocity; for VMAX, Michaelis-Menten plot data of the inhibitors (Figure S 3): L-dopa with inhibitor; for Type of inhibition: enzyme kinetic studies.

In assay [2] the test system is human melanocytes (UCT-Mel-1). Nature of the assay: Masson Fontana assay (melanin produced). Type of assay: cell-based. The conditions noted are these: for Increase in melanin produced: 265 µM (aspalathin 119.82 µg/mL, catechin 76.92 µg/mL); for Mean Diff., Negative vs sample, melanin produced (Table S 11): Dunnett's multiple comparison versus untreated melanocytes. The method, then: The cells were cultured as previously described. The silver nitrate solution was prepared, as described by Kwon-Chung et al.[34]. The cells were fixed and treated with the AgNO3 working solution for 40 min at 56 °C (in the dark). Following incubation, the cells were treated with sodium thiosulphate (52.63 mg/mL) for 1 min and rinsed with water. The cells were counterstained using haematoxylin. The washed cells were dehydrated and fixed on microscope slides. Light microscopy images were taken using a Zeiss Primo Vert light microscope and analysed with ImageJ[34].

Assay [3] relates to human melanoma cells (UCT-Mel1). Nature of the assay: Antiproliferative assay (Presto blue, 72 h). Type of assay: cell-based. The conditions noted are these: for IC50 / EC50: Homo sapiens; for EC50 / HillSlope, sigmoidal dose-response best-fit (Table S 10) / LogEC50, sigmoidal dose-response best-fit (Table S 10): variable slope; for EC50: bottom 0, top 100, read-out: EC50, sigmoidal dose-response best-fit (Table S 10).

Assay [4] has as its target T2, tyrosinase (Agaricus bisporus, UniProt C7FF04).
T2 construct: purchased Sigma-Aldrich Co. LLC, St. Louis, MO, USA
Nature of the assay: Tyrosinase enzyme kinetics in the absence of the substrate (subversive substrate properties). Type of assay: biochemical, mushroom. The conditions noted are these: for Vmax (substrate properties): Table 3.

Assay [5] has as its target T1, mushroom tyrosinase. Nature of the assay: Diphenolase tyrosinase assay (enzymatic rate, L-dopa as substrate). The conditions noted are these: for Tyrosinase activity at 200 µg/mL (fold increase): rate over 30 min at 37 °C versus vehicle control; for Tyrosinase stimulation, fold increase: enzyme rate of the sample divided by enzyme rate of the vehicle control. Type of assay: biochemical.

Assay [6] deals with tyrosinase. Particulars: cited from earlier work; for IC50: read-out: Antityrosinase IC50, previously reported.
[7] abbreviates: value in brackets, read-out: Antiproliferative IC50 (converted).
Setting [8] is: compound as substrate, absence of L-dopa.
The mark [9] stands for this setting: Tyrosinase stimulation EC50 ± SD, relative EC50, 50% of maximal response.
Where [10] appears, read: Tyrosinase stimulation EC50 ± SD, relative EC50, value in brackets.

Molecules are shown by their SMILES. Values after ≈ are worked out from the molar mass of the structure shown. Read-outs that look alike come from different tables or passages of the source. Starred links: 1 amine or outer side, 2 acyl side, 3 side chain; linkers in the order of their positions; H or OH if unused. Positions of bridges follow the written chain, without caps; N, C: chain ends. Non-standard residues stand in square brackets, D forms with d. Residues, ends and D or L forms follow the SMILES beside them. Chains are numbered I, II in the order given. Actinocin(9to1) = Cc1c2oc3c(C)ccc(C(=O)[*:1])c3nc-2c(C(=O)[*:2])c(N)c1=O; NMeV = CN[C@H](C(=O)O)C(C)C; Sar = CNCC(=O)O Bounds are passed on as bounds.

T2 sequence (C7FF04 1-392 limits assumed): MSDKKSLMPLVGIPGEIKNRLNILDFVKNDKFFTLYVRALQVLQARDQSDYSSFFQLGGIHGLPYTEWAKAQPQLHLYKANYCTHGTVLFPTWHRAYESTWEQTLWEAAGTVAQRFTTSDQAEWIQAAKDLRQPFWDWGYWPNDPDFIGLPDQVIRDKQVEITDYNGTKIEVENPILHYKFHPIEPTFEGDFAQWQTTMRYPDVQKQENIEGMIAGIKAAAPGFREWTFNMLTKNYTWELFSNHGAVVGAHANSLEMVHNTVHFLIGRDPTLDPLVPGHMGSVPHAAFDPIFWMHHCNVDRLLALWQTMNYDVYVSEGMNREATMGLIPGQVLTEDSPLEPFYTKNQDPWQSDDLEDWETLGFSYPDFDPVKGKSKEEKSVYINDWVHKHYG
T1 sequence (C7FF04 1-392 limits assumed): as above

On to `O=C(CCc1ccc(O)c(O)c1)c1c(O)cc(O)c(C2OC(CO)C(O)C(O)C2O)c1O` (stereo not drawn) [Aspalathin (1), aspalathin], for which the “Change in L-dopa kinetics, Vmax” value in assay [1] is 68.73 ± 3.47 µM/min. Also, the “Increase in melanin produced” value in assay [2] (listed as Aspalathin) is “approximately 4.5%”; in assay [2] (listed as aspalathin), 4.5%. In addition, in assay [2], the “Mean Diff., Negative vs sample, melanin produced (Table S 11)” value is reported as -8.382. The half-maximal inhibitory concentration (IC50) is above 200 µg/mL in assay [3] (72 h, concentration where 50% of the cells are viable, 72 h, read-out: Antiproliferative IC50 ± standard deviation) and 482 µM in assay [3] (setting [7]). Further, the concentration for a half-maximal effect (EC50) in assay [3] is 218 µg/mL (≈ 481 µM); in assay [5] (setting [9]), 265 µM; in assay [5] (setting [10]), 265 µM. Also, the “Antiproliferative IC50 ± standard deviation” value in assay [3] (concentration where 50% of the cells are viable, 72 h) is given as 217.75 ± 1.23 µg/mL. The “HillSlope, sigmoidal dose-response best-fit (Table S 10)” value in assay [3] is -5.86. Besides, the “LogEC50, sigmoidal dose-response best-fit (Table S 10)” value in assay [3] was determined as 2.34. For the same molecule, the “Substrate catalytic efficiency, times lower than native substrate” value in assay [4] is 3–4 times. The “Vmax (substrate properties)” value in assay [4] (setting [8]) is reported as 68.7 (± 3.5) mOD/min. For the same molecule, in assay [5], the “Tyrosinase activity at 200 µg/mL (fold increase)” value is on record as 1.11 fold increase. The “Tyrosinase stimulation, fold increase” value in assay [5] is given as 1.10 fold.

As to `O=C(O)/C=C/c1ccccc1` [Cinnamic acid (4), cinnamic acid], in assay [1], the “VMAX, Michaelis-Menten plot data of the inhibitors (Figure S 3)” value (from here on “VMAX … of the inhibitors (Figure S 3)”) was 16.82 ± 0.37 µmol/min; the Type of inhibition entry was “competitive inhibition”; the “Change in L-dopa kinetics, Vmax” value worked out at 16.82 ± 0.37 µM/min. In assay [5], the IC50 is 943.6 ± 8.1 µM and the “Tyrosinase inhibitory activity in words” value is given as “Moderate inhibitory activity”.

Turning to `CCCOC(=O)c1cc(O)c(O)c(O)c1` [n-Propyl gallate (10), n-propyl gallate], in assay [1], the “VMAX … of the inhibitors (Figure S 3)” value amounted to 20.56 ± 1.72 µmol/min and the Type of inhibition result was “non-competitive inhibition”. For the same molecule, the “Tyrosinase inhibitory activity in words” value in assay [5] is “Moderate inhibitory activity”. Also, the IC50 in assay [5] (read-out: Tyrosinase inhibition IC50 ± SD) was found to be 534.9 ± 5.09 µM.

For the molecule `O=c1cc(-c2ccc(O)cc2)oc2c([C@@H]3O[C@H](CO)[C@@H](O)[C@H](O)[C@H]3O)c(O)cc(O)c12` [Vitexin (15), vitexin], in assay [5], the IC50 is above 694 µM.

For `Oc1ccc(O)cc1` [hydroquinone], the half-maximal inhibitory concentration (IC50) in assay [6] is 19.8 ± 1.05 µM.

For `Oc1ccc(/C=C/c2cc(O)cc(O)c2)cc1` [resveratrol], in assay [6], the “Type of tyrosinase inhibition, well-known inhibitors” value is on record as “non-competitive” and the concentration for half-maximal inhibition (IC50) is 27.7 ± 1.15 µM.

Take `O=C(/C=C/c1ccc(O)c(O)c1)O[C@H](Cc1ccc(O)c(O)c1)C(=O)O` [Rosmarinic acid (12), rosmarinic acid]: in assay [1], the “VMAX … of the inhibitors (Figure S 3)” value amounted to 19.72 ± 1.01 µmol/min and the Type of inhibition entry is “competitive inhibition”. The 50% inhibitory concentration (IC50) in assay [6] was 4 µM. Further, in assay [5], the half-inhibitory concentration (IC50) is 7.33 ± 3.33 µM.

Regarding `O=C(O)c1ccc(O)cc1` [4-Hydroxybenzoic acid (6), 4-hydroxy benzoic acid], in assay [1], the “VMAX … of the inhibitors (Figure S 3)” value stood at 35.00 ± 1.84 µmol/min and the “Change in L-dopa kinetics, Vmax” value turned out to be 35.00 ± 1.84 µM/min. Also, the IC50 in assay [5] came out at 1868 ± 9.34 µM.

As for `Oc1cc(O)c2c(c1)O[C@H](c1ccc(O)c(O)c1)[C@@H](O)C2` [Catechin (3), (+)-catechin], the “Change in L-dopa kinetics, Vmax” value in assay [1] stood at 382.40 ± 7.03 µM/min. Moreover, the “Masson Fontana % increase in melanin produced” value in assay [2] (100 µg/mL, versus untreated cells) stood at 5.72%. Further, the results for the “Increase in melanin produced” value in assay [2] (listed as catechin) and in assay [2] (listed as catechin (3)) were 4.5% and “approximately 4.5%”, respectively. Further, in assay [2], the “Mean Diff., Negative vs sample, melanin produced (Table S 11)” value was -15.08. The half-maximal inhibitory concentration (IC50) was 166.3 ± 1.14 µg/mL in assay [3] (concentration where 50% of the cells are viable, 72 h, read-out: Antiproliferative IC50 ± standard deviation) and 573 µM in assay [3] (setting [7]). Moreover, the EC50 in assay [3] was 166 µg/mL (≈ 573 µM); in assay [5] (relative EC50, 50% of maximal response, read-out: Tyrosinase stimulation EC50 ± SD (converted)), 494 µM; in assay [5] (relative EC50, value in brackets, read-out: Tyrosinase stimulation EC50 ± SD (converted)) it was 494 µM. The “HillSlope, sigmoidal dose-response best-fit (Table S 10)” value in assay [3] is on record as -3.06. Also, the “LogEC50, sigmoidal dose-response best-fit (Table S 10)” value in assay [3] turned out to be 2.22. For the same molecule, in assay [4], the “Substrate catalytic efficiency, times higher than native substrate L-dopa” value amounted to 4 times. Besides, the “VMAX, subversive substrates (Figure S 5)” value in assay [4] (absence of the substrate L-dopa) is 382.4 ± 7.03 µmol/min. In addition, the “Vmax (absence of the substrate)” value in assay [4] (compound as substrate) was found to be 382.4 ± 7.0 µM/min. Further, in assay [4] (compound as substrate), the “kcat (catalytic constant)” value was 229.7 s⁻¹. Further, in assay [4] (setting [8]), the Km was determined as 471 µM. Moreover, the “Vmax (substrate properties)” value in assay [4] (setting [8]) is 382.4 (± 7.0) mOD/min. Also, in assay [5], the “Tyrosinase activity at 200 µg/mL (fold increase)” value came to 0.41 fold increase. Moreover, the “Tyrosinase stimulation, fold increase” value in assay [5] is listed as 0.40 fold; in assay [5] (listed as catechin (3)), 0.4 fold.

As for `O=C(O)/C=C/c1ccc(O)cc1` [p-Coumaric acid (9), p-coumaric acid], in assay [1], the “VMAX … of the inhibitors (Figure S 3)” value was found to be 17.71 ± 0.66 µmol/min; the Type of inhibition entry is on record as “competitive inhibition”; the “Change in L-dopa kinetics, Vmax” value is given as 17.71 ± 0.66 µM/min. In addition, in assay [5], inhibition was half-maximal at 153 ± 7.01 µM (IC50) and the “Tyrosinase inhibitory activity in words” value is on record as “Moderate inhibitory activity”.

The molecule `COc1cc(C(=O)O)cc(OC)c1O` [Syringic acid (13), syringic acid] returned a half-inhibitory concentration (IC50) in assay [5] above 1510 µM.

Regarding `COc1cc(/C=C/C(=O)O)ccc1O` [Ferulic acid (5), ferulic acid], the IC50 in assay [5] is above 1500 µM.

As to `O=C(O)/C=C/c1ccc(O)c(O)c1` [Caffeic acid (2), caffeic acid], the “Vmax (substrate properties)” value in assay [4] (setting [8]) is on record as 120.9 (± 15.5) mOD/min. In addition, the EC50 in assay [5] (setting [9]) and in assay [5] (setting [10]) was 228 µM each time.

For `Cc1c2oc3c(C)ccc(C(=O)N[C@@H]4C(=O)N[C@H](C(C)C)C(=O)N5CCC[C@H]5C(=O)N(C)CC(=O)N(C)[C@@H](C(C)C)C(=O)O[C@@H]4C)c3nc-2c(C(=O)N[C@@H]2C(=O)N[C@H](C(C)C)C(=O)N3CCC[C@H]3C(=O)N(C)CC(=O)N(C)[C@@H](C(C)C)C(=O)O[C@@H]2C)c(N)c1=O` [Actinomycin D, reference compound] (I: T[dV]P[Sar][NMeV] / II: T[dV]P[Sar][NMeV]; ester I:1-I:C, II:1-II:C; linker I:N-II:N via Actinocin(9to1)), the half-inhibitory concentration (IC50) in assay [3] (72 h, read-out: Antiproliferative IC50 ± standard deviation) amounted to 0.039 ± 0.002 µg/mL.

Consider `O=c1c(O[C@@H]2O[C@H](CO)[C@@H](O)[C@H](O)[C@H]2O)c(-c2ccc(O)c(O)c2)oc2cc(O)cc(O)c12` [Isoquercitrin (7), isoquercitrin], for which, in assay [1], the Type of inhibition result is “competitive inhibition”. This molecule yielded an IC50 in assay [5] above 646 µM.

On to `N[C@@H](Cc1ccc(O)c(O)c1)C(=O)O` [L-dopa, reference compound], for which the “Change in L-dopa kinetics, Vmax” value in assay [1] amounted to 22.82 ± 1.07 µM/min. For the same molecule, in assay [4] (setting [8]), the “Vmax (substrate properties)” value is 22.8 (± 1.1) mOD/min.
